Values belong to the molecule of their own block, whether it stands above or below them.
Columns and labels:
[1] = test system: food-maintained responding; assay: Food-maintained behavior in rhesus monkeys; format: in vivo
[2] = test system: cocaine-maintained responding; assay: Cocaine self-administration in rhesus monkeys; format: in vivo
human D3 receptor = human D3 receptor (Homo sapiens, UniProt P35462); assay: Radioligand displacement assay, hD3
[3] = test system: D3 receptors in rat brain; assay: Ex-vivo autoradiography of coronal rat brain sections; format: in vivo; conditions: co-injection of BP897; region of interest-to-background ratios; 60 min p.i.
[4] = test system: dopamine D3 receptors in vivo; assay: PET imaging study in rat
[5] = biological target: D3 receptors in rat brain slices (Rattus norvegicus, UniProt P19020); assay: In-vitro autoradiography of coronal rat brain slices; format: binding; conditions: proven by displacement with BP897 (1 μM)
Sequence of D3 receptors in rat brain slices (P19020 whole entry): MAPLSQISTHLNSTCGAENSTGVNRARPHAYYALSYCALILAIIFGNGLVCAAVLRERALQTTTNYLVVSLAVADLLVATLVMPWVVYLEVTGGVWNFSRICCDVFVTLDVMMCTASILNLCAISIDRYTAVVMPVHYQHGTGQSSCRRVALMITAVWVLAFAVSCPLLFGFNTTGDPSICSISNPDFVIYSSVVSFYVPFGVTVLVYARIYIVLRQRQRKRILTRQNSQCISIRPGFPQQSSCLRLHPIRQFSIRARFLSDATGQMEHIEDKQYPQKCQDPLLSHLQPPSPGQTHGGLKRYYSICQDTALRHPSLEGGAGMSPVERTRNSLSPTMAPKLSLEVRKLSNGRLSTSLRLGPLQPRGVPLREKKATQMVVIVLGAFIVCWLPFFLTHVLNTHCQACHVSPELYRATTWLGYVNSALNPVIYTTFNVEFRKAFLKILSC

Sequence of human D3 receptor (P35462 whole entry): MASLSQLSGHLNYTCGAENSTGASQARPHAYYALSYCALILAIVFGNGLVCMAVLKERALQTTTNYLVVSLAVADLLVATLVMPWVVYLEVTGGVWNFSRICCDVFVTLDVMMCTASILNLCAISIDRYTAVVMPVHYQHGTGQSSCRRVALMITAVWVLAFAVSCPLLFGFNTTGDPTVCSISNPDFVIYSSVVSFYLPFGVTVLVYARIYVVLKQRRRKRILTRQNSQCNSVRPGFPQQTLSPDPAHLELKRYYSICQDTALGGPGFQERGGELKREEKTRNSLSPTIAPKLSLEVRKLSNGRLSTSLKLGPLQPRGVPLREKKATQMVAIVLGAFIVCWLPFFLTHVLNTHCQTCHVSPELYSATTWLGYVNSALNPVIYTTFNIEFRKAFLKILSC

SMILES: COc1ccccc1N1CCN(CCCCNC(=O)c2cc3ccccn3n2)CC1 [Compound 1]
Food-maintained responding following the i.v. self-administration component (food 2) ([1]; food 2): did not appreciably alter
Reduction of food-maintained behavior during food 1 session ([1]; pretreatment 0.32 mg/kg, food 1 (before cocaine component)): approximately 30%
Food 1 and 2 responding at low and intermediate doses ([1]; pretreatment 0.1 and 0.18 mg/kg): did not markedly decrease
Duration of action of behaviorally active doses ([1]; suggested from food 2 components in sessions of i.v. saline availability): < 2 h
Cocaine-maintained responding, % of control values ([2]; pretreatment 0.32 mg/kg, 0.03 mg/kg per injection i.v. cocaine, group average): approximately 20%
Effect of various pretreatment doses on cocaine-maintained responding ([2]; various doses (Figure S2)): dose-related decreases

SMILES: CC(C)(C)c1nc(N2CCN(CCCCNC(=O)c3cc4ccccc4s3)CC2)cc(C(F)(F)F)n1 [Compound 9, N-(4-(4-(2-tert-butyl-6-(trifluoromethyl)pyrimidin-4-yl)piperazin-1-yl)butyl)benzo[b]thiophene-2-carboxamide]
D3 selectivity over all biogenic amine receptors investigated (human D3 receptor): 1000–20000 fold

Radioligand displaced by BP897, third ventricle (3V) [3]: 5–14%
Brain uptake of the radioligand in CNS structures [4]: marginal brain uptake
Mean whole pituitary gland uptake of the radioligand ([4]; 40 min p.i.): 0.394 ± 0.016 % ID/g
Binding in rat brain slices, in-vitro autoradiography [5]: D3-specific binding
SMILES: O=C(NCCCCN1CCN(c2ccccc2OCC[18F])CC1)c1cc2ccccn2n1 [[^18F]2, N-[4-[4-(2-[^18F]fluoroethoxyphenyl)-piperazin-1-yl]-butyl]-pyrazolo-[1,5-a]pyridin-2-carboxamide]
Blood-brain-barrier (BBB) penetration [4]: only low blood-brain-barrier (BBB) penetration
Reduction of uptake in the pituitary gland by pretreatment with BP897 [4]: 25%

From PMC5512454 (Bioorganic & medicinal chemistry, 2017)
